According to patent US20070089847A1, “Anti-microbial paper products having a substituted 1,2-dihydroquinoline” (Novus International, Inc., priority 2005, published 2007):
Where a name gives a salt, the structure may show the parent alone.

Test system: Aspergillus niger ATCC 9642 and Aspergillus flavus ATCC 9643
Test: In vitro disk assay of antifungal properties, agar plates containing test agent (Example 3)
Format: cell-based
Details: 48 hours at 25° C.
Method: In this assay, paper disks were soaked in a fungal solution and placed on the surface of agar plates containing different concentration of the test agent. The radius of fungal growth radiating from each disk was considered indicative of the degree of inhibition by the agent relative to a control.
The test agents were diluted in DMSO or water and tested at several different concentrations. The test agents were added to the agar solution after sterilization, but prior to solidification. […] The plates were incubated for 48 hours at 25° C. The zones of fungal growth (or no growth) were analyzed and the minimum total inhibitory concentration (%) was estimated for each agent.

Row | Molecule | Minimum Total Inhibitory Concentration (%)
1 | CSCCC(O)C(=O)O (centres unmarked) [2-hydroxy-4(methylthio)butanoic acid] | >0.5
2 | CC(=O)C(C)O (centres unmarked) [3-Hydroxy-2-Butanone] | >0.5
3 | O=C(O)CCO [3-Hydroxypropionic Acid] | >0.5
4 | CC=O [Acetaldehyde] | >0.2
5 | CC(=O)O [Acetic Acid] | 0.2
6 | O=C(O)CCCCC(=O)O [Adipic Acid] | >0.5
7 | O=C(O)CCCCC1CCSS1 (stereo not drawn) [Alpha Lipoic Acid] | 0.1
8 | CC(=O)Oc1c(C)c(C)c2c(c1C)CCC(C)(CCC[C@H](C)CCC[C@H](C)CCCC(C)C)O2 (stereo partly drawn) [Alpha Tocopherol Acetate] | >0.5
9 | Cc1c(C)c2c(c(C)c1O)CC[C@@](C)(CCC[C@H](C)CCC[C@H](C)CCCC(C)C)O2 [Alpha Tocopherol] | >0.5
10 | O=C1O[C@H]([C@@H](O)CO)C(O)=C1O [Ascorbic Acid] | >0.5
11 | CCCCCCCCCCCCCCCC(=O)OC[C@H](O)[C@H]1OC(=O)C(O)=C1O [Ascorbyl Palmitate] | >0.5
12 | COc1ccc(O)c(C(C)(C)C)c1 [BHA (Butylated HydroxyAnisole), Butylated HydroxyAnisole] | 0.025
13 | Cc1cc(C(C)(C)C)c(O)c(C(C)(C)C)c1 [BHT (Butylated HydroxyToluene), Butylated HydroxyToluene] | >0.5
14 | O=Cc1ccccc1 [Benzaldehyde] | 0.5
15 | O=C(O)c1ccccc1 [Benzoic Acid] | 0.1
16 | O=C1CCO1 [Beta-Propiolactone] | 0.1
17 | OB(O)O [Boric Acid] | 0.5
18 | CCCC(=O)O [Butyric Acid] | 0.2
19 | CC(=O)[O-].CC(=O)[O-].[Ca+2] [Calcium Acetate] | >0.5
20 | CCC(=O)[O-].CCC(=O)[O-].[Ca+2] [Calcium Propionate] | >0.5
21 | C=C(C)C1CC=C(C)C(=O)C1 (centres unmarked) [Carvone] | 0.1
22 | O=CC=Cc1ccccc1 [Cinnamaldehyde] | <0.005
23 | CC(C)=CCCC(C)=CC=O [Citral] | 0.1
24 | O=C(O)CC(O)(CC(=O)O)C(=O)O [Citric Acid] | >0.5
25 | O=S(=O)([O-])[O-].[Cu+2] [Copper Sulfate] | 0.05
26 | N[C@@H](CS)C(=O)O [Cysteine] | >0.5
27 | CCCCCCCCCC=O [Decanal] | >0.5

Row | Molecule | Minimum Total Inhibitory Concentration (%)
28 | CC(=O)C1C(=O)C=C(C)OC1=O (centres unmarked) [Dehydroacetic Acid] | 0.01
29 | Cc1cc(O)cc2c1O[C@](C)(CCC[C@H](C)CCC[C@H](C)CCCC(C)C)CC2 [Delta Tocopherol] | >0.5
30 | CC(=O)C(C)=O [Diacetyl] | 0.1
31 | CCCCCCCCCCCCOC(=O)CCSCCC(=O)OCCCCCCCCCCCC [Dilauryl Thiodipropionate] | >0.5
32 | CCCCCCCCCCCCOC(=O)c1cc(O)c(O)c(O)c1 [Dodecyl Gallate] | >0.5
33 | O=C(O)CN(CCN(CC(=O)O)CC(=O)O)CC(=O)O [EDTA] | 0.02
34 | CCO [Ethanol] | >0.5
35 | C=CCc1ccc(O)c(OC)c1 [Eugenol] | 0.05
36 | O=C(O)/C=C/C(=O)O [Fumaric Acid] | >0.5
37 | O=C(O)c1cc(O)c(O)c(O)c1 [Gallic Acid] | >0.5
38 | O=C(O)[C@H](O)[C@@H](O)[C@H](O)[C@H](O)CO [Gluconic Acid] | >0.5
39 | NCC(=O)O [Glycine] | >0.5
40 | O=C(O)CO [Glycolic Acid] | >0.5
41 | Cl [HCl] | 0.5
42 | CCCCCCCCCCCCCCCC[n+]1ccccc1.[Cl-] [Hexadecylpyridinium Cl] | 0.2
43 | OO [Hydrogen Peroxide] | 0.1
44 | CC(O)C(=O)O (centres unmarked) [Lactic Acid] | >0.5
45 | C=C(C)[C@H]1CC=C(C)CC1 [Limonene] | >0.5
46 | NCCCC[C@H](N)C(=O)O [Lysine] | >0.5
47 | O=C(O)/C=C\C(=O)O [Maleic Acid] | 0.5
48 | O=C(O)CC(=O)O [Malonic Acid] | >0.5
49 | CSCC[C@H](N)C(=O)O [Methionine] | >0.5
50 | COC(=O)c1ccc(O)cc1 [Methyl Paraben] | 0.5
51 | CCCCCCCCOC(=O)c1cc(O)c(O)c(O)c1 [Octyl Gallate] | >0.5
52 | O=P(O)(O)O [Phosphoric Acid] | 0.5
53 | O=Cc1ccc2c(c1)OCO2 [Piperonal] | 0.1
54 | CC(=O)[O-].[K+] [Potassium Acetate] | >0.5

Row | Molecule | Minimum Total Inhibitory Concentration (%)
55 | O=C([O-])c1ccccc1.[K+] [Potassium Benzoate] | >0.5
56 | C/C=C/C=C/C(=O)[O-].[K+] [Potassium Sorbate] | >0.5
57 | CCC(=O)O [Proprionic Acid] | 0.2
58 | CCCOC(=O)c1cc(O)c(O)c(O)c1 [Propyl Gallate] | >0.5
59 | CCCOC(=O)c1ccc(O)cc1 [Propyl Paraben] | 0.015
60 | CC(=O)[O-].[Na+] [Sodium Acetate] | >0.5
61 | O=C([O-])c1ccccc1.[Na+] [Sodium Benzoate] | >0.5
62 | O=S([O-])O.[Na+] [Sodium Bisulfite] | 0.2
63 | O=C([O-])CC(O)(CC(=O)[O-])C(=O)[O-].[Na+].[Na+].[Na+] [Sodium Citrate] | >0.5
64 | CC(=O)O.CC(=O)[O-].[Na+] [Sodium Diacetate] | 0.5
65 | O=C([O-])[C@H](O)[C@@H](O)[C@H](O)[C@H](O)CO.[Na+] [Sodium Gluconate] | >0.5
66 | O=P1([O-])OP(=O)([O-])OP(=O)([O-])OP(=O)([O-])OP(=O)([O-])OP(=O)([O-])O1.[Na+].[Na+].[Na+].[Na+].[Na+].[Na+] [Sodium Hexametaphosphate] | >0.5
67 | CC(O)C(=O)[O-].[Na+] (centres unmarked) [Sodium Lactate] | >0.5
68 | O=S([O-])S(=O)(=O)[O-].[Na+].[Na+] [Sodium Metabisulfite] | 0.1
69 | CCC(=O)[O-].[Na+] [Sodium Proprionate] | >0.5
70 | O=P([O-])([O-])OP(=O)([O-])[O-].[Na+].[Na+].[Na+].[Na+] [Sodium Pyrophosphate] | >0.5
71 | O=S([O-])[O-].[Na+].[Na+] [Sodium Sulfite] | >0.5
72 | O=S([O-])([O-])=S.[Na+].[Na+] [Sodium Thiosulfate] | >0.5
73 | O=P([O-])(O)O.[Na+] [Sodium bi-Phosphate] | >0.5
74 | O=S(=O)(O)O [Sulfuric Acid] | 0.1
75 | CC(C)(C)c1cc(O)ccc1O [TBHQ (Tert-ButylHydroQuinone), Tert-ButylHydroQuinone] | 0.1
76 | O=C(O)C(O)C(O)C(=O)O (centres unmarked) [Tartaric Acid] | >0.5
77 | N[C@@H](Cc1c[nH]c2ccccc12)C(=O)O [Tryptophan] | >0.5
78 | CCCCC(=O)O [Valeric Acid] | 0.1
79 | COc1cc(C=O)ccc1O [Vanillin] | 0.1
80 | Stearyl Citrate | >0.5
